Measured values: US9765067B2, “Thiophen-2-yl-pyridin-2-yl-1H-pyrazole-4-carboxylic acid derivatives and the use thereof as soluble guanylate cyclase activators” (Novartis AG, priority 2014, dated 2017)

The compounds below were run against T1, soluble guanylate cyclase (human GUCYA3/GUCYB3) overexpressed in CHO cells (Homo sapiens, UniProt Q02108+Q02153) (assay: CHO cellular assay (cGMP production, HTRF)). Conditions: CHO K1 clone 8E10 overexpressing human sGC, Cisbio HTRF, 1 h room temperature, 1 mM IBMX, 20 uM ODQ, minimum quantification limit 0.5 nM.
T1 construct: expressed in transfected cells
T1 sequence (Q02108 1-690 partner): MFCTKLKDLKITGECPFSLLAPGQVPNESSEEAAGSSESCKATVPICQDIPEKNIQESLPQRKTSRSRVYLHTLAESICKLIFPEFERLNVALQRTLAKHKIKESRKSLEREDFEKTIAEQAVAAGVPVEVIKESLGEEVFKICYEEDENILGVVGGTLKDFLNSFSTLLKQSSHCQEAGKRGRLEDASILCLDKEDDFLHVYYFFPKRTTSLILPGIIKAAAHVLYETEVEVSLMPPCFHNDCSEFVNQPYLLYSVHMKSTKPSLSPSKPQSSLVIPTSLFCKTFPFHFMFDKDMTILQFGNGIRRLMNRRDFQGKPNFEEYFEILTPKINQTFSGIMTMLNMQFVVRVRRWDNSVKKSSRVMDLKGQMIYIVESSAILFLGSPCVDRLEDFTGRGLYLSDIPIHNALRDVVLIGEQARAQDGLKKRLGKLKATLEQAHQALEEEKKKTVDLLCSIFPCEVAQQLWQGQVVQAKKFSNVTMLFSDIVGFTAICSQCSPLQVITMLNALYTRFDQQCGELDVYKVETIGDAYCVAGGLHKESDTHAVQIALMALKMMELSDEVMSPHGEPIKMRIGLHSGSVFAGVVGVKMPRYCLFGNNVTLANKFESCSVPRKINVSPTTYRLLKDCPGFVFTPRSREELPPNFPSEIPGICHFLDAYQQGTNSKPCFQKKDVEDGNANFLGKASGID
T1 sequence (Q02153 1-619): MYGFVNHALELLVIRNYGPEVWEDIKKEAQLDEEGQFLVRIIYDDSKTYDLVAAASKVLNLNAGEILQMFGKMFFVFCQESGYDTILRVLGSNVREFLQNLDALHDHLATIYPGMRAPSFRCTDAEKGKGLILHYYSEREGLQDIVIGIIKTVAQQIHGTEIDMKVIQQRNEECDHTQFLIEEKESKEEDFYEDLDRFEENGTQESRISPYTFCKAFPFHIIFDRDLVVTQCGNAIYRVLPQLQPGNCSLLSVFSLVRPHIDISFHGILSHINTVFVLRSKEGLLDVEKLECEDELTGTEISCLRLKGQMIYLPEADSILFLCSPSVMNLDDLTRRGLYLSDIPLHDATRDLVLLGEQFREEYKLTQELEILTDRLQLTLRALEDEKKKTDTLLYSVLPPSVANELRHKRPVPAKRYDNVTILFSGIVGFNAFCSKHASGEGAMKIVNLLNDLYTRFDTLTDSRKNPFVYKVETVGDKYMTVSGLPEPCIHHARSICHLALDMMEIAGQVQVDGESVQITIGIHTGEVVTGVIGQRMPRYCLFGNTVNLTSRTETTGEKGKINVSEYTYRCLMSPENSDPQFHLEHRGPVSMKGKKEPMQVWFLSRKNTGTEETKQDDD
Format: cell-based
Summary of the method: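 Stable CHO K1 clone expressing human GUCYA3/GUCYB3. Compounds applied 1 h at room temperature in HBSS, 0.1% BSA, 1 mM IBMX, 20 uM ODQ, 0.5% DMSO. cGMP measured by HTRF and interpolated from a standard curve; EC50 from 4-parameter sigmoidal fit.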

| Compound | EC50 |
| --- | --- |
| CCc1cc(OCc2cc(C)sc2-c2cccc(-n3ncc(C(=O)O)c3C(F)(F)F)n2)cnc1C1CCN(C(=O)C2CC2)CC1 [Example 35-14, 1-(6-(3-(((6-(1-(Cyclopropanecarbonyl)piperidin-4-yl)-5-ethylpyridin-3-yl)oxy)methyl)-5-methylthiophen-2-yl)pyridin-2-yl)-5-(trifluoromethyl)-1H-pyrazole-4-carboxylic acid] | 15 nM |
| CCCc1cc(OCc2cc(C)sc2-c2cccc(-n3ncc(C(=O)O)c3C(F)(F)F)n2)ccc1C1CCN(C(=O)C2CC2)CC1 [Example 35-15, 1-(6-(3-((4-(1-(Cyclopropanecarbonyl)piperidin-4-yl)-3-propylphenoxy)methyl)-5-methylthiophen-2-yl)pyridin-2-yl)-5-(trifluoromethyl)-1H-pyrazole-4-carboxylic acid] | 1.4 nM |
| Cc1cc(C2CCN(C(=O)C3CC3)CC2)ccc1NC(C)c1ccsc1-c1cccc(-n2ncc(C(=O)O)c2C(F)(F)F)c1 (centres unmarked) [Example 36, 1-(3-(3-(1-((4-(1-(Cyclopropanecarbonyl)piperidin-4-yl)-2-methylphenyl)amino)ethyl)thiophen-2-yl)phenyl)-5-(trifluoromethyl)-1H-pyrazole-4-carboxylic acid] | 15 nM |
| CCc1cc(NCc2cc(C)sc2-c2cccc(-n3ncc(C(=O)O)c3CC)n2)ccc1C1CCN(C(=O)C2CC2)CC1 [Example 37, 1-(6-(3-(((4-(1-(Cyclopropanecarbonyl)piperidin-4-yl)-3-ethylphenyl)amino)methyl)-5-methylthiophen-2-yl)pyridin-2-yl)-5-ethyl-1H-pyrazole-4-carboxylic acid] | ≤ 0.5 nM |
| CCc1cc(NCc2c(C(F)(F)F)csc2-c2cccc(-n3ncc(C(=O)O)c3CC)n2)ccc1C1CCN(C(=O)C2CC2)CC1 [Example 38, 1-(6-(3-(((4-(1-(Cyclopropanecarbonyl)piperidin-4-yl)-3-ethylphenyl)amino)methyl)-4-(trifluoromethyl)thiophen-2-yl)pyridin-2-yl)-5-ethyl-1H-pyrazole-4-carboxylic acid] | ≤ 0.5 nM |
| Cc1cc(CCc2ccc(C3CCN(C(=O)OC(C)(C)C)CC3)cc2C)c(-c2cccc(-n3ncc(C(=O)O)c3C(F)(F)F)n2)s1 [Example 46, 1-(6-(3-(4-(1-(tert-Butoxycarbonyl)piperidin-4-yl)-2-methylphenethyl)-5-methylthiophen-2-yl)pyridin-2-yl)-5-(trifluoromethyl)-1H-pyrazole-4-carboxylic acid] | 3 nM |

Next, values leading:

| EC50 | Compound |
| --- | --- |
| 1 nM | CCc1nc(OCc2cc(C)sc2-c2cccc(-n3ncc(C(=O)O)c3C(F)(F)F)n2)ccc1C1CCN(C(=O)C2CC2)CC1 [Example 39, 1-(6-(3-(((5-(1-(Cyclopropanecarbonyl)piperidin-4-yl)-6-ethylpyridin-2-yl)oxy)methyl)-5-methylthiophen-2-yl)pyridin-2-yl)-5-(trifluoromethyl)-1H-pyrazole-4-carboxylic acid] |
| 370 nM | Cc1cc(C2CCN(CC(F)(F)F)CC2)ccc1OCc1cc(C(C)C)sc1-c1cccc(-n2ncc(C(=O)O)c2C(F)(F)F)n1 [Example 40, 1-(6-(5-Isopropyl-3-((2-methyl-4-(1-(2,2,2-trifluoroethyl)piperidin-4-yl)phenoxy)methyl)thiophen-2-yl)pyridin-2-yl)-5-(trifluoromethyl)-1H-pyrazole-4-carboxylic acid] |
| 428 nM | CCCc1cc(COc2ccc(C3CCN(CC(F)(F)F)CC3)cc2C)c(-c2cccc(-n3ncc(C(=O)O)c3C(F)(F)F)n2)s1 [Example 41, 1-(6-(3-((2-Methyl-4-(1-(2,2,2-trifluoroethyl)piperidin-4-yl)phenoxy)methyl)-5-propylthiophen-2-yl)pyridin-2-yl)-5-(trifluoromethyl)-1H-pyrazole-4-carboxylic acid] |
| 887 nM | Cc1cc(C2CCN(C(=O)C3CNC3)CC2)ccc1OCc1ccsc1-c1cccc(-n2ncc(C(=O)O)c2C(F)(F)F)n1 [Example 43, 1-(6-(3-((4-(1-(Azetidine-3-carbonyl)piperidin-4-yl)-2-methylphenoxy)methyl)thiophen-2-yl)pyridin-2-yl)-5-(trifluoromethyl)-1H-pyrazole-4-carboxylic acid] |
| ≤ 0.5 nM | CCc1c(C(=O)O)cnn1-c1cccc(-c2sc(C)cc2CCc2ccc(C3CCN(C(=O)C4CC4)CC3)cc2C)n1 [Example 45, 1-(6-(3-(4-(1-(Cyclopropanecarbonyl)piperidin-4-yl)-2-methylphenethyl)-5-methylthiophen-2-yl)pyridin-2-yl)-5-ethyl-1H-pyrazole-4-carboxylic acid] |
